What was measured:
Human MAT2A = target: T1, Human MAT2A (Homo sapiens, UniProt P31153); assay: Phosphate Sensor Fluorescence Assay (MAT2A enzyme inhibition); assay type: biochemical; conditions: 5.8 nM MAT2A (1-395), 500 uM L-methionine, 500 uM ATP, 1 hour at room temperature, fluorescence at 450 nm
T1 construct: Human MAT2A: Cepter, amino acids 1-395 Clone ID 334; purchased Cepter Clone ID 334, lot 00023-148
Method: MAT2A enzyme is incubated with a test compound in DMSO or DMSO and its substrates (L-methionine and ATP) in a microtiter plate. The enzymatic reaction is stopped by the addition of Working Phosphate Sensor Mixture. The plate is analyzed for fluorescence at 450 nm. The high control (DMSO with enzyme and its substrates) gives high fluorescence which represents no inhibition of enzymatic activity while the low control (DMSO with MAT2A substrates and no enzyme) gives low fluorescence which represents full inhibition of enzymatic activity. […]
For the assay, a mixture of 1 mM L-methionine/1 mM ATP (2× final pre-stopped concentration) in assay buffer: MAT2A (2× final pre-stopped concentration) in Assay Buffer and Working Phosphate Sensor Mixture (1.5 uM Phosphate Sensor/30 mM EDTA in Assay Buffer, which is 3× final concentrations) were prepared. […] The plate was read for fluorescence at 450 nm after exciting at 430 nm on a Tecan Spark microplate reader.
Percent inhibition was calculated in Chemical and Biological Information System (CBIS), (ChemInnovation Software Inc.). […]

HCT116 MTAP null cells = assay: HCT116 MTAP-Null Cell Line Viability; assay type: cell-based; conditions: final count 4-5 days post treatment (IncuCyte, GFP), normalized to DMSO wells
Method: Preparation: HCT116 WT and MTAP null cells were cultured in DMEM/F12+10% FBS at 37° C. Left the media, dissociation reagent, and PBS in room temperature at least 1 hr prior to start.
Process: Washed cells with 5 mL of PBS, aspirate the PBS. Added 1 mL of dissociation reagent (Trypsin, Gibco #25200114) and left at room temperature for 2-5 mins. When cells were detached, added 5 ml of fresh media. Cells were collected into a 10 mL tube and centrifuged at 1000 rpm for 5 minutes at room temperature. Aspirated media, resuspended in 5 mL fresh media, and counted on Bio-Rad TC20 Cell Counter. Based on the count and the table below, added cells to a clear flat bottom, TC-treated 384-well plate (Corning #3764).
Treated the cells the next day post splitting. Used a 10 mM stock of compound.
Process: Compound treatment was applied to cells using a Tecan D300e digital dispenser with a high concentration 20 micromolar and 3-fold serial dilutions over 9 concentrations in triplicate on a 384-well plate.
4-5 days post treatment, used a Live-Cell Analysis System (IncuCyte®) suitable for reading GFP to do a final count. Raw data were normalized based on the average value of the DMSO wells on each plate.

T1 sequence (P31153 whole entry, the tested form may be a part): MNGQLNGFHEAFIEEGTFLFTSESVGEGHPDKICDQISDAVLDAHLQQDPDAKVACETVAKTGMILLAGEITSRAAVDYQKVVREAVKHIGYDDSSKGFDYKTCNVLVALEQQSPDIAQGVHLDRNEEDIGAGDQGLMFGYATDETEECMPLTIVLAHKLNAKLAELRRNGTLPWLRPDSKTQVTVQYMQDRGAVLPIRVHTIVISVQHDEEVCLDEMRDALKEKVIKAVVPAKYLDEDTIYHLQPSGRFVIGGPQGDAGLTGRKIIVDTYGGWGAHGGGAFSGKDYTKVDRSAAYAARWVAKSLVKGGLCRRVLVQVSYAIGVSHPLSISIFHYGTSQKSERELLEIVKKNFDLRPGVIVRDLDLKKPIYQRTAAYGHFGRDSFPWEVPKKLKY

Row | SMILES | IC50 (Human MAT2A) [nM] | EC50 (HCT116 MTAP null cells) [nM]
1 | Nc1nc(=O)n(-c2ccccc2Cl)c2nc(C(F)(F)F)ccc12 (atropisomer, axis not shown) [Atropisomer Ib] | 60 | 149
2 | Nc1nc(=O)n(-c2ccccc2Cl)c2nc(C(F)(F)F)ccc12 (single isomer, unassigned) [Atropisomer Ia] | 3 | 20
